Where two headings read alike, the source gives them in different places.
How the values were obtained:
[1] = test system: amine transaminases AfATA, GzATA, NfATA, AoATA, AtATA, MvATA, SpATA; assay type: biochemical
[2] = Stability of salt solutions observed in the screening; assay type: physicochemical; conditions: certain salt solutions; strong discoloration
Text: The results of table 3 show clearly that certain acids allow significant differences in solubility between investigated salts. In this screening especially differences between product amines and the commonly used donor amines isopropylamine/alanine were targeted. Based on this consideration the following acids appear most applicable: 34CA, 34NA, 43CNA and 3DPPA. In addition, 2DPPA was identified as suitable acid. Acids with less strong differences are PCPA, 24CNA, 25CNA, 35DNOT, 3NA and 435CNBA, which might be useful for other product amines.

[3] = donor amine salt

## O=C(O)CC(c1ccccc1)c1ccccc1 [Compound 3DPPA, 3,3-diphenylpropionic acid]
[1]
  inhibition of amine transaminases: does not significantly inhibit

## O=C(O)C1(c2ccccc2)CCCC1 [PCPA, 1-Phenylcyclo-pentane-carboxylic acid]
[2]
  stability of salt solutions: unknown decomposition reaction

## O=C(O)C(c1ccccc1)c1ccccc1 [DPAA, diphenylacetic acid]
[1]; pH 7.5
  inhibition of amine transaminases: strongly inhibited

## O=C(O)c1ccc(Cl)c([N+](=O)[O-])c1 [Compound 43CNA, 4-chloro-3-nitro-benzoic acid]
[1]; pH 7.5
  inhibition of amine transaminases: strongly inhibited

## CC(C)N.O=C(O)c1ccc(Cl)c([N+](=O)[O-])c1 [Compound 5, isopropylamine salt of 4-chloro-3-nitrobenzoic acid (43CNA)]
[3]
  solubility: 993
